Source: PubChem BioAssay AID248 (DTP/NCI, 2004)
Where “and” joins values, the source holds several entries; their conditions need not be identical. Equal values may be shown once. Inconclusive results and toxic doses are left out. Cut-off read from the data, not from the text of the source: active = T/C of 150% or more; inactive = T/C below 125%.

Test system: L1210 leukemia ip in BDF1 mice, survival T/C
Test: NCI In Vivo Anticancer Drug Screen. Data for tumor model L1210 Leukemia (intraperitoneal) in B6D2F1 (BDF1) mice
Details: endpoint: mean survival time, higher = longer survival
Outline: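 Transplanted-tumor mice were given test agent; controls received vehicle only. Survival readings from the two groups were divided (treated over control).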

[1] = dose: 100.0 mg/kg/injection, schedule: Q04DX003 (ip), vehicle: Klucel (hydroxypropylcellulose) (HPC)
[2] = dose: 200.0 mg/kg/injection, schedule: Q04DX003 (ip), vehicle: Klucel (hydroxypropylcellulose) (HPC)
[3] = dose: 400.0 mg/kg/injection, schedule: Q04DX003 (ip), vehicle: Klucel (hydroxypropylcellulose) (HPC)
[4] = dose: 200.0 mg/kg/injection, schedule: Q04DX002 (ip), vehicle: saline with Tween-80
[5] = dose: 25.0 mg/kg/injection, schedule: Q04DX002 (ip), vehicle: saline with Tween-80
[6] = dose: 50.0 mg/kg/injection, schedule: Q04DX002 (ip), vehicle: saline with Tween-80
[7] = dose: 100.0 mg/kg/injection, schedule: Q01DX009 (ip), vehicle: saline
[8] = dose: 100.0 mg/kg/injection, schedule: Q04DX003 (ip), vehicle: saline
[9] = dose: 200.0 mg/kg/injection, schedule: Q01DX009 (ip), vehicle: saline
[10] = dose: 200.0 mg/kg/injection, schedule: Q04DX003 (ip), vehicle: saline
[11] = dose: 400.0 mg/kg/injection, schedule: Q04DX003 (ip), vehicle: saline
[12] = dose: 100.0 mg/kg/injection, schedule: Q01DX001 (ip), vehicle: saline
[13] = dose: 50.0 mg/kg/injection, schedule: Q01DX009 (ip), vehicle: saline with Tween-80
[14] = dose: 100.0 mg/kg/injection, schedule: Q01DX009 (ip), vehicle: saline with Tween-80
[15] = dose: 200.0 mg/kg/injection, schedule: Q01DX009 (ip), vehicle: saline with Tween-80
[16] = dose: 100.0 mg/kg/injection, schedule: Q01DX009 (ip), vehicle: other
[17] = dose: 200.0 mg/kg/injection, schedule: Q01DX009 (ip), vehicle: other
[18] = dose: 400.0 mg/kg/injection, schedule: Q01DX009 (ip), vehicle: other

Measured: T/C

CCCCCCCCCCCCCCOc1ccc(C=O)cc1OC
inactive: [1] 96 % of control | [2] 93 % of control | [3] 91 % of control

CCC1CC(O)c2c(O)c3c(c(O)c2C1O)C(=O)c1cccc(O)c1C3=O (stereo unspecified) (tested in a mixture with another compound)
inactive: dose: 0.25 mg/kg/injection, schedule: Q01DX015 (ip), vehicle: carboxymethylcellulose (CMC) 101 % of control | dose: 0.5 mg/kg/injection, schedule: Q01DX015 (ip), vehicle: carboxymethylcellulose (CMC) 101 % of control | dose: 3.12 mg/kg/injection, schedule: Q01DX001 (ip), vehicle: carboxymethylcellulose (CMC) 93 % of control

C1=CC2(CCC13CS3)CS2 (stereo unspecified)
inactive: dose: 100.0 mg/kg/injection, schedule: Q04DX002 (ip), vehicle: saline with Tween-80 91 % of control | [4] 88 % of control | dose: 400.0 mg/kg/injection, schedule: Q04DX002 (ip), vehicle: saline with Tween-80 91 % of control

C[OH+]c1ccccc1C(=O)O.C[OH+]c1ccccc1C(=O)O.[Ni]
inactive: [5] 97 % of control and 103 % of control | [6] 100 % of control and 107 % of control | [4] 120 % of control and 90 % of control

CCN(CC)CCCC(C)Nc1cc(N)nc2nc(-c3ccccc3)c(-c3ccccc3)nc12 (stereo unspecified)
inactive: dose: 9.5 mg/kg/injection, schedule: Q01DX001 (ip), vehicle: other 89 % of control | dose: 38.0 mg/kg/injection, schedule: Q01DX001 (ip), vehicle: other 87 % of control | dose: 75.0 mg/kg/injection, schedule: Q01DX001 (ip), vehicle: other 96 % of control

CCC(CC)C1CC[N-]CC1.CCC(CC)C1CC[N-]CC1.N#C[S-].N#C[S-].[Cu]
inactive: dose: 75.0 mg/kg/injection, schedule: Q01DX001 (ip), vehicle: saline 123 % of control

C#CCN1CCC2=C(C1)c1c(O)cc(C(C)C(C)CCCCC)cc1OC2(C)C (stereo unspecified)
inactive: dose: 100.0 mg/kg/injection, schedule: Q01DX001 (ip), vehicle: Klucel (hydroxypropylcellulose) (HPC) 95 % of control | dose: 200.0 mg/kg/injection, schedule: Q01DX001 (ip), vehicle: Klucel (hydroxypropylcellulose) (HPC) 92 % of control | dose: 400.0 mg/kg/injection, schedule: Q01DX001 (ip), vehicle: Klucel (hydroxypropylcellulose) (HPC) 103 % of control

c1nc2c(o1)CCCC2
inactive: dose: 50.0 mg/kg/injection, schedule: Q04DX002 (ip), vehicle: carboxymethylcellulose (CMC) 98 % of control | dose: 50.0 mg/kg/injection, schedule: Q04DX002 (ip), vehicle: other 97 % of control | dose: 100.0 mg/kg/injection, schedule: Q04DX002 (ip), vehicle: carboxymethylcellulose (CMC) 98 % of control | dose: 100.0 mg/kg/injection, schedule: Q04DX002 (ip), vehicle: other 100 % of control | dose: 200.0 mg/kg/injection, schedule: Q04DX002 (ip), vehicle: carboxymethylcellulose (CMC) 95 % of control | dose: 200.0 mg/kg/injection, schedule: Q04DX002 (ip), vehicle: other 93 % of control

NC(=O)C(O)C(Br)(Br)Br (stereo unspecified)
inactive: [7] 94 % of control | [8] 97 % of control | [9] 95 % of control | [10] 93 % of control | dose: 400.0 mg/kg/injection, schedule: Q01DX009 (ip), vehicle: saline 90 % of control | [11] 97 % of control

Cc1ccc(NC(=S)N2CCC(CCCC3CCN(C(=S)Nc4ccc(C)cc4C)CC3)CC2)c(C)c1
inactive: dose: 50.0 mg/kg/injection, schedule: Q01DX009 (ip), vehicle: Klucel (hydroxypropylcellulose) (HPC) 98 % of control | dose: 100.0 mg/kg/injection, schedule: Q01DX009 (ip), vehicle: Klucel (hydroxypropylcellulose) (HPC) 107 % of control | [1] 97 % of control | dose: 200.0 mg/kg/injection, schedule: Q01DX009 (ip), vehicle: Klucel (hydroxypropylcellulose) (HPC) 95 % of control | [2] 95 % of control

NC(=O)CS
inactive: [12] 96 % of control | dose: 200.0 mg/kg/injection, schedule: Q01DX001 (ip), vehicle: saline 105 % of control

CCOC(=O)C(C(=O)OCC)C1CCCC(=O)C1 (stereo unspecified)
inactive: [13] 92 % of control | [14] 96 % of control | [15] 92 % of control

CC(=O)c1ccc2ccccc2c1O
inactive: [16] 97 % of control | [8] 101 % of control | [17] 103 % of control | [10] 90 % of control | [18] 106 % of control | [11] 88 % of control

CON(C)S(=O)(=O)c1ccc(Cl)cc1
inactive: [1] 100 % of control | [2] 103 % of control | [3] 105 % of control

C[n+]1ccc2ccccc2c1
inactive: dose: 50.0 mg/kg/injection, schedule: Q01DX009 (ip), vehicle: saline 105 % of control | dose: 50.0 mg/kg/injection, schedule: Q04DX003 (ip), vehicle: saline 105 % of control | [7] 100 % of control | [8] 101 % of control | [9] 107 % of control | [10] 106 % of control

O=C(CCC(O)c1ccccc1)c1ccccc1 (stereo unspecified)
inactive: [14] 94 % of control | dose: 100.0 mg/kg/injection, schedule: Q04DX003 (ip), vehicle: saline with Tween-80 110 % of control | [15] 94 % of control | dose: 200.0 mg/kg/injection, schedule: Q04DX003 (ip), vehicle: saline with Tween-80 106 % of control | dose: 400.0 mg/kg/injection, schedule: Q01DX009 (ip), vehicle: saline with Tween-80 97 % of control | dose: 400.0 mg/kg/injection, schedule: Q04DX003 (ip), vehicle: saline with Tween-80 97 % of control

CS(=O)(=O)OCCCS(=O)(=O)O
inactive: [12] 102 % of control

CC(=O)O[C@H]1[C@H]2O[C@]23[C@@H]2CC[C@]4(O)C[C@@H](O)CC[C@]4(C)[C@H]2CC[C@]3(C)[C@H]1c1ccc(=O)oc1
inactive: dose: 10.0 mg/kg/injection, schedule: Q01DX001 (ip), vehicle: other 90 % of control | dose: 20.0 mg/kg/injection, schedule: Q01DX001 (ip), vehicle: other 100 % of control | dose: 40.0 mg/kg/injection, schedule: Q01DX001 (ip), vehicle: other 107 % of control | dose: 100.0 mg/kg/injection, schedule: Q01DX001 (ip), vehicle: other 94 % of control | dose: 200.0 mg/kg/injection, schedule: Q01DX001 (ip), vehicle: other 92 % of control

CCN(/N=C/c1ccc([N+](=O)[O-])o1)C(N)=O
inactive: [5] 100 % of control | [6] 103 % of control

CCOC/C=C\c1ccccc1
inactive: [13] 95 % of control | [14] 92 % of control | [15] 92 % of control

CSc1nc(N)nc2c1nc(SC)n2C1OC(CO)C(O)C1O (stereo unspecified)
inactive: dose: 100.0 mg/kg/injection, schedule: Q01DX005 (ip), vehicle: saline 102 % of control | dose: 200.0 mg/kg/injection, schedule: Q01DX005 (ip), vehicle: saline 94 % of control

O=C(Nc1ccc(Cl)c([N+](=O)[O-])c1)Oc1ccc2ccccc2c1
inactive: [16] 92 % of control | [17] 97 % of control | [18] 107 % of control

C=CC(=O)N(CCN1CCOCC1)C(C)C
inactive: dose: 100.0 mg/kg/injection, schedule: Q04DX002 (ip), vehicle: saline 94 % of control | dose: 200.0 mg/kg/injection, schedule: Q04DX002 (ip), vehicle: saline 97 % of control | dose: 400.0 mg/kg/injection, schedule: Q04DX002 (ip), vehicle: saline 94 % of control
